Results taken from patent EP0178388A1, “Quinolinecarboxylic acid derivatives” (KYORIN PHARMACEUTICAL CO., LTD., priority 1984, dated 1986).
Values after ≈ are worked out from the molar mass of the structure shown. Where a name gives a salt, the structure may show the parent alone. Read-outs that look alike come from different tables or passages of the source.

Columns and labels:
[1] = tested on: Bacillus subtilis PCI 219; assay: In vitro antibacterial activity, MIC (standard strain); format: cell-based; settings: PCI219; Bacillus subtilis PCI 219, 10^6 cells/ml, standard strain; read-out: MIC
[2] = tested on: Staphylococcus aureus 209 P; assay: as above; format: cell-based; settings: 10^6 cells/ml
[3] = tested on: S. aureus IID 670 (Terajima); assay: as above; format: cell-based; settings: Staphylococcus aureus, IID670, 10^6 cells/ml
S. epidermidis IID 866 = assay: as above; format: cell-based; settings: Staphylococcus epidermidis, IID866, S. epidermidis IID 866, 10^6 cells/ml
[4] = tested on: Streptococcus pyogenes S-8; assay: as above; format: cell-based; settings: S8, Streptococcus pyogenes S-8, 10^6 cells/ml
S. pyogenes IID 692 = assay: as above; format: cell-based; settings: Streptococcus pyogenes, IID692, S. pyogenes IID 692, 10^6 cells/ml
S. pneumoniae IID 552 = assay: as above; format: cell-based; settings: Streptococcus pneumoniae, IID552, S. pneumoniae IID 552, 10^6 cells/ml
S. faecalis IID 682 = assay: as above; format: cell-based; settings: Enterococcus faecalis, IID682, S. faecalis IID 682, 10^6 cells/ml
[5] = tested on: Escherichia coli NIHJ JC-2; assay: as above; format: cell-based; settings: NIHJJC2, Escherichia coli NIHJ JC-2, 10^6 cells/ml
E. coli ATCC 10536 = assay: as above; format: cell-based; settings: Escherichia coli, ATCC10536; E. coli ATCC 10536, 10^6 cells/ml, standard strain; read-out: MIC
[6] = tested on: Proteus vulgaris IFO 3167; assay: as above; format: cell-based; settings: IFO3167; Proteus vulgaris IFO 3167, 10^6 cells/ml, standard strain; read-out: MIC
P. mirabilis IID 994 = assay: as above; format: cell-based; settings: Proteus mirabilis, IID994, P. mirabilis IID 994, 10^6 cells/ml
P. morganii IID 602 = assay: as above; format: cell-based; settings: Morganella morganii, IID602; P. morganii IID 602, 10^6 cells/ml, standard strain; read-out: MIC
[7] = tested on: Klebsiella pneumoniae I-220S; assay: as above; format: cell-based; settings: I220S; Klebsiella pneumoniae I-220S, 10^6 cells/ml, standard strain; read-out: MIC
K. pneumoniae KY(GN)6445 = assay: as above; format: cell-based; settings: K. pneumoniae KY(GN)6445, 10^6 cells/ml, standard strain
[8] = tested on: Enterobacter cloacae IID 977; assay: as above; format: cell-based; settings: IID977, Enterobacter cloacae IID 977, 10^6 cells/ml
[9] = tested on: Citrobacter freundii IID 976; assay: as above; format: cell-based; settings: IID976; Citrobacter freundii IID 976, 10^6 cells/ml, standard strain; read-out: MIC
[10] = tested on: Serratia marcescens IID 618; assay: as above; format: cell-based
Shigella sonnei IID 969 = assay: as above; format: cell-based; settings: IID969, Shigella sonnei IID 969, 10^6 cells/ml
Experimental: The in vitro antibacterial activity has been investigated, the minimun inhibitory concentration (MIC) was determined in accordance with the method recommended by Japan Society of Chemotherapy.

[11] = tested on: Salmonella enteritidis IID 604; assay: as above; format: cell-based; settings: Salmonella enterica; Salmonella enteritidis IID 604, 10^6 cells/ml, standard strain; read-out: MIC
[12] = tested on: Pseudomonas aeruginosa V-1; assay: as above; format: cell-based; settings: V1; Pseudomonas aeruginosa V-1, 10^6 cells/ml, standard strain; read-out: MIC
P. aeruginosa IFO 12689 = assay: as above; format: cell-based; settings: standard strain
[13] = tested on: Yersinia enterocolitica IID 981; assay: as above; format: cell-based; settings: IID981; Yersinia enterocolitica IID 981, 10^6 cells/ml, standard strain; read-out: MIC
[14] = tested on: Acinetobacter anitratus IID 876; assay: as above; format: cell-based; settings: Acinetobacter calcoaceticus, IID876; Acinetobacter anitratus IID 876, 10^6 cells/ml, standard strain; read-out: MIC
[15] = tested on: Alcaligenes faecalis 0114002; assay: as above; format: cell-based; settings: Alcaligenes faecalis 0114002, 10^6 cells/ml
S. pneumoniae S-4288 [16] = assay: MIC against the infecting strain (Table 2); format: cell-based; settings: Streptococcus pneumoniae, S4288; S. pneumoniae S-4288 (Table 2, part 4)
S. pneumoniae S-4288 [17] = assay: In vivo antibacterial activity against systemic infection in mice; design: species or system mice (ICR-S); settings: Streptococcus pneumoniae, S4288; S. pneumoniae S-4288, mice (ICR-S), intraperitoneal infection, oral at 1 hour after infection, challenge dose 2.5 x 10^3 cfu/mouse; read-out: ED50
Experimental: Experiment 2 In vivo antibacterial activity against systemic infection in mice (ICR-S)
The infections were produced by intraperitoneal infection of a suspension of the bacterial culture corresponding to the germ studied. The product was administered orally at 1 hour after the infection. The 50% effective dose (ED50) which protects 50% of the animals from death caused by the infection was determined from the relation between dosage and survival rate.

CC1CN(c2c(F)cc3c(=O)c(C(=O)O)cn(C4CC4)c3c2Cl)CC(C)N1 (stereo not shown) [Example 6, 8-Chloro-1-cyclopropyl-6-fluoro-1,4-dihydro-7-(3,5-dimethyl-1-piperazinyl)-4-oxoquinoline-3-carboxylic acid and its hydrochloride]
MIC [1]: 0.05 µg/mL | MIC ([2]; read-out: MIC): 0.2 µg/mL | MIC [3]: 0.2 µg/mL | MIC (S. epidermidis IID 866): 0.2 µg/mL | MIC [4]: 0.39 µg/mL | MIC (S. pyogenes IID 692): 0.78 µg/mL | MIC (S. pneumoniae IID 552): 0.78 µg/mL | MIC (S. faecalis IID 682): 0.78 µg/mL | MIC [5]: 0.05 µg/mL | MIC (E. coli ATCC 10536): 0.025 µg/mL | MIC [6]: 0.05 µg/mL | MIC (P. mirabilis IID 994): 0.1 µg/mL | MIC (P. morganii IID 602): 0.2 µg/mL | MIC [7]: 0.2 µg/mL | MIC (K. pneumoniae KY(GN)6445; Klebsiella pneumoniae, read-out: MIC): 0.05 µg/mL | MIC [8]: 0.2 µg/mL | MIC [9]: 0.1 µg/mL | MIC ([10]; IID618, Serratia marcescens IID 618, 10^6 cells/ml, read-out: MIC): 0.2 µg/mL | MIC (Shigella sonnei IID 969): 0.05 µg/mL | MIC [11]: 0.1 µg/mL | MIC [12]: 1.56 µg/mL | MIC (P. aeruginosa IFO 12689; Pseudomonas aeruginosa, IFO12689, P. aeruginosa IFO 12689, 10^6 cells/ml, read-out: MIC): 3.13 µg/mL | MIC [13]: 0.2 µg/mL | MIC [14]: 0.1 µg/mL | MIC [15]: 0.78 µg/mL

CC1CN(c2c(F)cc3c(=O)c(C(=O)O)cn(C4CC4)c3c2Cl)CCN1 (stereo not drawn) [Example 7, 8-Chloro-l-cyclopropyl-6-fluoro-l,4-dihydro-7-(3-methyl-l-piperazinyl)-4-oxoquinoline-3-carboxylic acid]
MIC [2]: 0.10 µg/mL (≈ 0.263 µM) | MIC (K. pneumoniae KY(GN)6445): 0.025 µg/mL (≈ 0.0658 µM) | MIC ([10]; Serratia marcescens IID 618, 10^6 cells/ml): 0.05 µg/mL (≈ 0.132 µM) | MIC (P. aeruginosa IFO 12689; P. aeruginosa IFO 12689, 10^6 cells/ml, listed as Exp.7): 0.78 µg/mL (≈ 2.05 µM) | MIC (S. pneumoniae S-4288 [16]): 0.78 µg/mL (≈ 2.05 µM) | ED50 (S. pneumoniae S-4288 [17]): 15.6 mg/kg
